Experimental data as given in patent US8153630B2, “Kinase inhibitors” (Miikana Therapeutics, Inc., priority 2004, dated 2012).

What was measured:
[1] = molecular target: T1, recombinant Aurora A (Homo sapiens, UniProt O14965); test: PanVera Z'-Lyte Aurora kinase assay; format: biochemical; conditions: Z'-Lyte Ser/Thr 1 peptide 2 μM, ATP 10 μM, 1 h
T1 construct: purchased Upstate, Lake Placid, N.Y
T1 sequence (O14965 1-403): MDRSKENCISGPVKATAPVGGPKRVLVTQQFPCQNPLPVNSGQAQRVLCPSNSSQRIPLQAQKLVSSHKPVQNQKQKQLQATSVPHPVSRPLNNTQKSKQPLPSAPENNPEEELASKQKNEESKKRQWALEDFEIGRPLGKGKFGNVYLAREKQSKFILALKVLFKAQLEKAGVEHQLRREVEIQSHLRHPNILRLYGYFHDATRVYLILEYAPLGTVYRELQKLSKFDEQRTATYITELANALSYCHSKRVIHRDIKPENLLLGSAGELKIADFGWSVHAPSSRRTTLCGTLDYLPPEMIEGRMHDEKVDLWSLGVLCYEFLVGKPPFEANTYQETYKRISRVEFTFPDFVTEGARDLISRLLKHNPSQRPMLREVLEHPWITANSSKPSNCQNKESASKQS
Procedure: Compounds 7-14 above were tested for their potency against recombinant Aurora A (Upstate, Lake Placid, N.Y.) using the PanVera Z'-Lyte kinase assay kit—Ser/Thr 1 peptide (Invitrogen, Carlsbad, Calif.). Assays were carried out in kinase assay buffer (50 mM HEPES, pH 7.5, 10 mM MgCl2, 5 mM EGTA, 0.05% Brij-35, 2 mM DTT). Test compounds were initially dissolved in DMSO at 100× the highest tested concentration, then serially diluted to 4× test concentrations in kinase assay buffer. Next, Aurora A (final concentration 200-500 ng/mL), Z′-Lyte Ser/Thr 1 peptide (final concentration 2 μM) and ATP (final concentration 10 μM) were added according to the manufacturer's instructions. Assays were carried out in half-area 96-well white polystyrene assay plates (Corning, Corning, N.Y.) in a final volume of 20 μL. The reaction was allowed to proceed for 1 h at room temperature in the dark, at which point the development reagent and stop reagent were added according to the manufacturer's instructions. Coumarin (Ex. 400 nm, Em. 465 nm) and fluorescein (Ex. 400 nm, Em. 565 nm) fluorescence values were measured on a SpectraFluor Plus plate reader (Tecan, Durham, N.C.). The emission ratio (coumarin/fluorescein) was determined and used to calculate the percent phosphorylation for each well. Wells containing substrate but no kinase and wells containing a phosphopeptide control were used to set 0% and 100% phosphorylation values, respectively. Typically 20-40% of the substrate was phosphorylated in wells without inhibitor. Dose-response curves of relative Aurora A activity vs. inhibitor concentration were plotted with Grafit (Erithacus Software, Horley, Surrey, UK) and used to calculate IC50 values.

[2] = molecular target: Aurora B kinase (Homo sapiens, UniProt Q96GD4); test: Aurora B (Aurora 1) inhibition assay; format: biochemical; conditions: compound concentration 100 μM; ATP 50 μM, 16 h; read-out: inhibition of the Aurora B enzyme
[3] = system: HCT 116 Cells; test: Aurora kinase whole cell cytotoxicity assay: Sulforhodamine B; format: cell-based; conditions: Homo sapiens, HCT116, SRB staining, 96 hours incubation
Procedure: Human tumour-derived cell lines, HCT116 or MCF7 (ATCC) were plated in a 96 well plate in DMEM containing 10% fetal bovine serum and 2 mM L-glutamine at a density of 500 HCT116 cells or 1,000 MCF7 cells per well and incubated at 37° C., 5% CO2, for 24 hours prior to the addition of experimental compounds. Compounds were added using the dilution series indicated to duplicate plates and the cells were incubated in media plus compound for 96 hours. An additional plate was fixed in 10% TCA at the time of the addition of compound to provide a measurement of the cell population at time zero, the time of drug addition. Following the 96 hour incubation, cells were fixed in situ by gently aspirating off the culture media and then adding 50 ul of ice cold 10% TCA per well and incubation at 4° C. for 60 minutes. The plates were washed with tap water five times and allowed to air dry for 5 minute. 50 ul of a 0.4% (w/v) Sulforhodamine B solution in 1% (v/v) acetic acid was added per well and the cells were incubated for 30 minutes at room temperature. Following staining, plates were washed four times with 1% acetic acid to remove any unbound dye and then allowed to air dry for 5 minutes. The stain was solubilized with 100 ul of 10 mM Tris pH 10.5 per well and placed on an orbital rotator for 5 minutes. The absorbance was read at 570 nm. Percentage growth was calculated using the absorbance readings from the time zero plate (Tz) and the dilution series plate […] which included a column of cells grown in media without compound as a control (C) using the formulas: [(Ti−Tz)/(C−Tz)]×100 for concentrations for which Ti>/=Tz [(Ti−Tz)/Tz]×100 for concentrations for which Ti<Tz.
Three dose response parameters were calculated for each experimental agent. Growth inhibition of 50% (GI50) was calculated from [(Ti−Tz)/(C−Tz)]×100=50, which was the drug concentration resulting in a 50% reduction in the net protein increase (as measured by SRB staining) in control cells during the drug incubation. The drug concentration resulting in total growth inhibition (TGI) was calculated from Ti=Tz. The LC50 (concentration of drug resulting in a 50% reduction in the measured protein at the end of the drug treatment as compared to that at the beginning) indicating a net loss of cells following treatment ws calculated from [(Ti−Tz)/Tz]×100=−50. Values are calculated for each of these three parameters if the level of activity was reached; however, if the effect was not reached or was exceeded, the value for that parameter is expressed as greater or less than the maximum or minimum concentration tested.

Chain of Aurora B kinase (Q96GD4 whole entry): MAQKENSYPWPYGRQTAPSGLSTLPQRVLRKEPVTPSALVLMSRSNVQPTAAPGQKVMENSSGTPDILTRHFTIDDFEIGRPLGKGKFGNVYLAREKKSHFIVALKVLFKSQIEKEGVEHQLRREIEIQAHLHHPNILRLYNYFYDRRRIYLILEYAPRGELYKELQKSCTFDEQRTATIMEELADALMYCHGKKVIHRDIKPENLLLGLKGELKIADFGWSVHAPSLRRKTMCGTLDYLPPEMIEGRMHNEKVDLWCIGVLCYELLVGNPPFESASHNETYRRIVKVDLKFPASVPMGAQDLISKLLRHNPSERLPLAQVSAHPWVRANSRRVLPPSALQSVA

Row | Compound | IC50 [1] [nM] | inhibition at 100 µM [2] [%] | GI50 [3] [nM]
1 | CCOC(=O)c1nc(Sc2ccc(NC(=O)C3CC3)cc2)nc(Nc2cc(C)[nH]n2)c1N [Compound 11, Ethyl 2-(4-cyclopropanecarboxamidophenylsulfanyl)-5-amino-6-(5-methylpyrazol-3-ylamino)-4-pyrimidinecarboxylate] | < 100 | 100 | 100 to 1000
2 | Cc1cc(Nc2nc(Sc3ccc(NC(=O)C4CC4)cc3)nc(C(=O)NCCN3CCOCC3)c2N)n[nH]1 [Compound 52, N-(2-Morpholin-4-ylethyl) 2-(4-cyclopropanecarboxamidophenylsulfanyl)-5-amino-6-(5-methylpyrazol-3-ylamino)-4-pyrimidinecarboxamide] | < 100 | 100 | 100 to 1000
3 | Cc1cc(Nc2nc(Sc3ccc(NC(=O)C4CC4)cc3)nc(C(=O)NC3CCOCC3)c2N)n[nH]1 [Compound 63, N-Tetrahydro-2H-pyran-4-yl 2-(4-cyclopropanecarboxamidophenylsulfanyl)-5-amino-6-(5-methylpyrazol-3-ylamino)-4-pyrimidinecarboxamide] | < 100 |  | 100 to 1000
4 | Cc1cc(Nc2nc(Sc3ccc(NC(=O)C4CC4)cc3)nc(C(=O)NCC(F)(F)F)c2N)n[nH]1 [Compound 65, N-(2,2,2-Trifluoroethyl) 2-(4-cyclopropanecarboxamidophenylsulfanyl)-5-amino-6-(5-methylpyrazol-3-ylamino)-4-pyrimidinecarboxamide] | < 100 |  | 100 to 1000
5 | Cc1cc(Nc2nc(Sc3ccc(NC(=O)C4CC4)cc3)nc(C(=O)OCC[Si](C)(C)C)c2N)n[nH]1 [Compound 67] | 100 to 1000 |  | 1000 to 10000
6 | Cc1cc(Nc2nc(Sc3ccc(NC(=O)C4CC4)cc3)nc(C(=O)N3CCN(C)CC3)c2N)n[nH]1 [Compound 68] | 1000 to 10000 |  | 1000 to 10000

Now from value to compound, other results behind:

Row | IC50 [1] [nM] | inhibition at 100 µM [2] [%] | Compound | GI50 [3] [nM]
7 | < 100 |  | COCC(C)NC(=O)c1nc(Sc2ccc(NC(=O)C3CC3)cc2)nc(Nc2cc(C)[nH]n2)c1N (stereo not shown) [Compound 61, N-(2-Methoxy-1-methylethyl) 2-(4-cyclopropanecarboxamidophenylsulfanyl)-5-amino-6-(5-methylpyrazol-3-ylamino)-4-pyrimidinecarboxamide] | 100 to 1000
8 | 100 to 1000 |  | Cc1cc(Nc2nc(Sc3ccc(NC(=O)C4CC4)cc3)nc(C(=O)NC3CCCCC3)c2N)n[nH]1 [Compound 62, N-Cyclohexyl 2-(4-cyclopropanecarboxamidophenylsulfanyl)-5-amino-6-(5-methylpyrazol-3-ylamino)-4-pyrimidinecarboxamide] | 1000 to 10000
9 | < 100 |  | Cc1cc(Nc2nc(Sc3ccc(NC(=O)C4CC4)cc3)nc(C(=O)NC3CCN(C)CC3)c2N)n[nH]1 [Compound 64, N-(1-Methylpiperidin-4-yl) 2-(4-cyclopropanecarboxamidophenylsulfanyl)-5-amino-6-(5-methylpyrazol-3-ylamino)-4-pyrimidinecarboxamide] | 100 to 1000
10 | < 100 |  | Cc1cc(Nc2nc(Sc3ccc(NC(=O)C4CC4)cc3)nc(C(=O)OCc3ccccc3)c2N)n[nH]1 [Compound 66, Benzyl 2-(4-cyclopropanecarboxamidophenylsulfanyl)-5-amino-6-(5-methylpyrazol-3-ylamino)-4-pyrimidinecarboxylate] | 100 to 1000
